Patent US20250215460A1, “MICROBIAL […] THE CONVERSION OF CARBOHYDRATES” (Ohio State Innovation Foundation, priority 2022, published 2025)

System: C. tyrobutyricum
Test: Batch fermentation in stirred-tank bioreactor on glucose and xylose with acetate and benzyl viologen added
Format: cell-based, Clostridium tyrobutyricum
Details: in the presence of 3.75 μM BV (0.30 g/g before BV addition); pH 6.0, ~18 g/L acetate added at ~48 h
Experimental: Batch fermentation in a stirred-tank bioreactor with C. tyrobutyricum grown on glucose and xylose at pH 6.0 was studied with the addition of ˜18 g/L acetate and 3.75 μM benzyl viologen (BV) at ˜48 h. With BV and acetate addition, C. tyrobutyricum converted glucose, xylose, and acetate simultaneously to butyrate as the sole fermentation product with close to 100% purity at an overall yield of ˜0.48 g/g substrate. Almost all glucose and acetate (both produced before BV addition and externally added) were consumed to produce butyrate, reaching a high concentration of ˜46 g/L. Butyric acid yield from sugars increased from 0.30 g/g before BV addition to 0.52 g/g from both sugars and acetate consumed in the presence of 3.75 μM BV. The theoretical yield of butyric acid from glucose in the fermentation is 0.8 mol/mol (0.39 g/g) when acetate (0.4 mol/mol) and carbon dioxide (2 mol/mol) are also produced as co-products. In contrast, butyrate formation from acetate has a theoretical yield of 0.73 g/g (0.5 mol/mol), which is 87.2% higher than that from glucose, because no substrate carbon is lost in carbon dioxide. In addition to the higher butyrate yield, butyrate was produced as the only main product in the fermentation with a high acid purity of 98.3%, which was much higher than ˜80% in typical butyric acid fermentation. […]

Q: How did the “Butyric acid yield from both sugars and acetate consumed” value turn out when c1ccc(C[n+]2ccc(-c3cc[n+](Cc4ccccc4)cc3)cc2)cc1 [BV, benzyl viologen] was run?
A: Its value is 0.52 g/g.
